From patent publication US20120308570A1, “METHODS FOR TREATING DISEASES” (priority 2009, published 2012)

Assays:
Assay type in all cases: binding
SSB-2ΔSB = biological target: T1, SSB-2ΔSB (Mus musculus, UniProt O88838); test: 1H-15N HSQC NMR titration of iNOS peptide into 15N-labelled SSB-2ΔSB; conditions: 0.1 mM SSB-2ΔSB, ratios 1:0.5, 1:1, 1:1.5, pH 7.0, 22° C.
T1 construct: GST (N, cleaved yes); made in house; host or cells: E. coli BL21 (DE3)
T1 sequence (O88838 12-224): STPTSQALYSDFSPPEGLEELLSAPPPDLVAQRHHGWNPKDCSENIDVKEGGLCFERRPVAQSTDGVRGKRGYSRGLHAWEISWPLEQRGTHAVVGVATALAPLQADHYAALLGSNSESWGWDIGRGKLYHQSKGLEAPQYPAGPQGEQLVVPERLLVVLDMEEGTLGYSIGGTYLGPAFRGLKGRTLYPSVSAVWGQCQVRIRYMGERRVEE
Protocol: NMR spectra were recorded on an Avance 500 spectrometer equipped with a cryoprobe. The ^1H chemical shifts were referenced indirectly to DSS at 0 ppm via the H2O signal, and the ^13C and ^15N chemical shifts were referenced indirectly using absolute frequency ratios (Wishart et al., 1995). Spectra were processed using Topspin version 1.3 (Bruker Biospin) and analysed using XEASY, version 1.3. ^15N-labelled SSB-2ΔSB Sample for NMR analysis were prepared in H2O containing 5% ^2H2O, 10 mM sodium phosphate, 50 mM sodium chloride, 2 mM EDTA, 2 mM DTT and 0.02% (w/v) sodium azide at pH 7.0. Two-dimensional ^1H-^15N HSQC spectrum of a 0.1 mM ^15N-labelled SSB-2ΔSB sample was recorded and 22° C. using a data matrix size of 2048×256 and with 128 scans per t1 increment. The spectral widths were 13.5 ppm for ^1H and 40.0 ppm for ^15N; carrier frequencies were 4.7 ppm for ^1H and 118 ppm for ^15N. Unlabelled iNOS N-terminal peptide (wild-type) were then titrated into the ^15N-labelled SSB-2ΔSB sample, and ^1H-^15N HSQC spectra recorded at ^15N-labelled SSB-2ΔSB:iNOS peptide ratios of 1:0.5, 1:1, and 1:1.5.
Nuclear magnetic resonance (NMR) spectroscopy was then used to further analyze the SSB-2:iNOS peptide interaction. […]

iNOS/SSB-2 interaction = biological target: T2, iNOS/SSB-2 interaction (Mus musculus, UniProt O88838); test: Peptide competition assay (anti-Flag immunoprecipitation, anti-iNOS Western blot)
T2 construct: cDNA clones covering the entire coding region of murine SSB-1 to −4 were isolated; expressed in transfected cells; host or cells: 293T cells (Flag-SSB-2); C57BL/6 BMDM lysate (iNOS)
T2 sequence (O88838 1-264): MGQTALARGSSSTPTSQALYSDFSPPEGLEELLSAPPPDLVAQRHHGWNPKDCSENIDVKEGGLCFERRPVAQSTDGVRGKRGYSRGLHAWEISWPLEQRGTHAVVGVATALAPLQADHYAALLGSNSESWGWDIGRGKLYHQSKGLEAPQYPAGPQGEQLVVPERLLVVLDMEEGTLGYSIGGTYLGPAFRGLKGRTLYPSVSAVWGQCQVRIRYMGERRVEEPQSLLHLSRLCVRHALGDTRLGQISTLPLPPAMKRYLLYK
Protocol: 293T cells were transfected with vector alone or a construct expressing FLAG-tagged SSB-2 and lysed as described above. iNOS peptide (SEQ ID NO:3) was added in increasing concentrations (0.001, 0.01, 0.1, 1.0 and 10 μM) to iNOS-expressing lysate generated from C57BL/6 BMDM stimulated with LPS/IFNγ. 293T lysates were then added to the macrophage/iNOS peptide lysates and incubated for 1 h at 4° C. Anti-Flag antibody coupled to Sepharose beads (M2, Sigma) was added to the lysate mix and incubated for 3 h at 4° C. Complexes were then separated by SDS-PAGE and analysed by Western blot with anti-iNOS antibodies.
Given that there are a number of disease states where elevated or prolonged iNOS expression might be beneficial, the present inventors were interested in whether the iNOS/SSB-2 interaction could be disrupted. As a simple proof-of-concept experiment, free iNOS peptide was used to competitively disrupt the interaction. 293T cells were transiently transfected with cDNA expressing Flag-tagged SSB-2, lysed and mixed with iNOS-expressing macrophage lysates which contained increasing amounts of free iNOS peptide.

[1] = biological target: T3, SSB-2 SPRY domain (SSB-2ΔSB, residues 12-224) (Mus musculus, UniProt O88838); test: ITC of SSB-2 SPRY domain with iNOS N-terminal peptides; conditions: 25° C., 100 mM TrisHCl, 150 mM NaCl, pH 8.0
T3 construct: GST (N, cleaved yes); made in house; host or cells: E. coli BL21 (DE3)
T3 sequence (O88838 12-224): T1 sequence (O88838 12-224)
From the text: The construct used for expression of recombinant murine SSB-2 protein included almost all the native sequence of mouse SSB-2 except for the SOCS box and the first eleven residues (residues 12-224, SWISS-PROT accession number 088838). This sequence, together with six residues at the N-terminus (GSSARQ (SEQ ID NO:38), numbered 6-11) and seven at the C-terminus (TRRIHRD (SEQ ID NO:39), numbered 225-231), both originating from the vector, gave a construct of 226 residues in total. This was expressed as a GST fusion protein in BL21 (DE3) E. coli. For ITC and co-precipitation experiments, bacteria were grown in L-broth. For NMR analysis, bacteria were grown in M9 minimal media supplemented with ^15N NH4Cl (99%, 1 g L−1). The GST fusion protein was purified from clarified cell lysates using Glutathione Sepharose 4B (Amersham Biosciences) then cleaved in situ using thrombin (Roche). […]
To determine whether the SSB-2-SPRY domain could interact with the sequence identified by the database searches, a series of peptides including the wild-type and various mutant sequences corresponding to amino acids 19-31 of murine iNOS, were synthesized and binding affinities for the SSB-2-SPRY domain (residues 12-224; SSB-2ΔSB) measured using isothermal titration calorimetry (ITC) (Table 2, FIG. 3).

For “Ac-KEEKDINNNVKKT-NH2 [I, Ac-KEEKDINNNVKKT-NH2]”, the “binding to SSB-2ΔSB by NMR” value (SSB-2ΔSB) was “bound to SSB-2ΔSB”, the “inhibition of SSB-2 interaction with iNOS” value (iNOS/SSB-2 interaction; 100 nM iNOS peptide) was “modestly inhibited” and the “inhibition of SSB-2 interaction with iNOS” value (iNOS/SSB-2 interaction; 1000 nM peptide) was “completely inhibited”. The Kd [1] was 0.013 µM.
